From patent US20100029654A1, “CARDIOVASCULAR COMPOSITIONS AND USE OF THE SAME FOR THE TREATMENT OF ALZHEIMER'S DISEASE” (MOUNT SINAI SCHOOL OF MEDICINE, priority 2006, published 2010)
Counter-ions that a name gives are not always drawn. Like-named read-outs stand apart in the source and are kept apart here.

Experiments:
[1] = system: Aβ1-42; test: Aβ1-42 content in conditioned medium of primary cortico-hippocampal neuron cultures from Tg2576 mice (ELISA; primary and secondary dose-response screening); type: cell-based, mouse; conditions: for Ab1-42 (% of ctl) / activity at 100 µM: drug 100 μM; for reducing Aβ1-42: <85% of ctl; for activity at 100 µM: Mus musculus, Neuron, 24 h, read-out: Ab1-42 (% of ctl)
Summary of the method: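 Primary cortico-hippocampal neurons from embryonic Tg2576 mouse brain were seeded on poly-D-lysine-coated 96-well plates at 1.0×10^5 cells per well in serum-free Neurobasal medium with 2% B27, 0.5 mM L-glutamine and 1% penicillin-streptomycin. For primary screening, duplicate wells received 100 μM drug (1% DMSO final). Vehicle-treated cultures served as controls, and Aβ1-42 in conditioned medium was measured by commercial ELISA.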

[2] = system: Aβ1-40; test: Aβ1-40 content in conditioned medium of primary cortico-hippocampal neuron cultures from Tg2576 mice (ELISA; primary and secondary dose-response screening); type: cell-based, mouse; conditions: for Ab1-40 (% of ctl) / activity at 100 µM: drug 100 μM; for reduced Aβ1-40: <85% of ctl; for activity at 100 µM: Mus musculus, Neuron, 24 h, read-out: Ab1-40 (% of ctl)
Summary of the method: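 Primary cortico-hippocampal neurons from embryonic Tg2576 mice were plated at 1.0×10^5 cells per well on poly-D-lysine-coated 96-well plates in Neurobasal with 2% B27, 0.5 mM L-glutamine and 1% penicillin-streptomycin. Cultures received drug in 1% DMSO, and Aβ1-40 in the conditioned medium was measured by BioSource ELISA 24 hours after treatment, relative to vehicle controls.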

[3] = system: primary cortico-hippocampal neuron cultures; test: lactate dehydrogenase (LDH) activity assay in parallel neuron cultures
Description: For in vitro treatments drugs available from “The Spectrum Collection” in stocks of 10 mM in DMSO were applied directly to cultures to the desired concentrations (final 1% DMSO); control primary neuron cultures from Tg2576 embryos were treated with vehicle resulting in a final 1% DMSO.
Cell viability was assessed using a commercial available LDH assay kit according to the manufacture's instruction (Promega).

[4] = system: primary cortico-hippocampal neuron cultures; test: MTT in primary screening
[5] = Primary Screening, table sorted by Aβ1-40
[6] = primary screening, Tg2576 neuron cultures, table sorted by Aβ1-42
[7] = primary screening, table sorted by Aβ1-42

Compound	Ab1-42 (% of ctl) [1, 5]	reducing Aβ1-42 ([1]; primary screening)	Ab1-42 (% of ctl) [1, 6]	Ab1-40 (% of ctl) [2, 5]	reduced Aβ1-40 ([2]; primary screening)	Ab1-40 (% of ctl) [2, 6]	LDH (% of ctl) [3, 5]	LDH (% of ctl) [3, 7]	MTT (% of ctl) [4, 5]	MTT (% of ctl) [4, 7]	activity at 100 µM [1, 5]	activity at 100 µM [1, 6]	activity at 100 µM [2, 5]	activity at 100 µM [2, 6]
O=C(O)C(O)C(O)C(=O)O.OCc1cccnc1 (stereo not drawn) [Nicotinyl Tartrate]	73.8 % of ctl	useful in reducing Aβ1-42	73.8 % of ctl	80.0 % of ctl	reduced Aβ1-40	80.0 % of ctl	122.6 % of ctl	122.6 % of ctl	92.7 % of ctl	92.7 % of ctl				
CC(CCc1ccccc1)NC(C)C(O)c1ccc(O)cc1 (stereo not drawn) [Nylidrin Hydrochloride]					reduced Aβ1-40		115.6 % of ctl	115.6 % of ctl	79.7 % of ctl	79.7 % of ctl	90.4%	90.4%	70.5%	70.5%
CCCc1nc(C(C)(C)O)c(C(=O)OCc2oc(=O)oc2C)n1Cc1ccc(-c2ccccc2-c2nnn[nH]2)cc1 [Olmesartan Medoxomil]		useful in reducing Aβ1-42			reduced Aβ1-40		90.7 % of ctl	90.7 % of ctl	90.7 % of ctl	90.7 % of ctl	70.7%	70.7%	83.9%	83.9%
Cc1cc(C(C)(C)C)c(O)c(C)c1CC1=NCCN1 [Oxymetazoline Hydrochloride]		useful in reducing Aβ1-42			reduced Aβ1-40		97.0 % of ctl	97.0 % of ctl	97.3 % of ctl	97.3 % of ctl	44.9%	44.9%	78%	78%
C#CCN(C)Cc1ccccc1 [Pargyline Hydrochloride]					reduced Aβ1-40		116.9 % of ctl	116.9 % of ctl	86.4 % of ctl	86.4 % of ctl	106%	106%	78.6%	78.6%
CN1C(C)(C)CCCC1(C)C [Pempidine Tartrate]		useful in reducing Aβ1-42			reduced Aβ1-40		108.4 % of ctl	108.4 % of ctl	91.3 % of ctl	91.3 % of ctl	78.6%	78.6%	80.9%	80.9%
C[N+]1(CCCCC[N+]2(C)CCCC2)CCCC1 [Pentolinium Tartrate]							118.0 % of ctl	118.0 % of ctl	103.8 % of ctl	103.8 % of ctl	134%	134%	121%	121%
CC(=O)CCCCn1c(=O)c2c(ncn2C)n(C)c1=O [Pentoxifylline]							132.4 % of ctl	132.4 % of ctl	91.1 % of ctl	91.1 % of ctl	109%	109%	97.1%	97.1%
C1CCC(C(CC2CCCCN2)C2CCCCC2)CC1 (stereo not drawn) [Perhexiline Maleate]		useful in reducing Aβ1-42			reduced Aβ1-40		1065.9 % of ctl	1065.9 % of ctl	7.2 % of ctl	7.2 % of ctl	26.2%	26.2%	4.8%	4.8%
O=C1c2ccccc2C(=O)C1c1ccccc1 [Phenindione]							107.9 % of ctl	107.9 % of ctl	108.8 % of ctl	108.8 % of ctl	105%	105%	104%	104%
CC(C)NCC(O)COc1cccc2[nH]ccc12 (stereo not drawn) [Pindolol]		useful in reducing Aβ1-42					171.7 % of ctl	171.7 % of ctl	98.9 % of ctl	98.9 % of ctl	46.1%	46.1%	99%	99%
CC(=O)Nc1ccc(OCC(O)CNC(C)C)cc1 (stereo not drawn) [Practolol]							108.9 % of ctl	108.9 % of ctl	101.3 % of ctl	101.3 % of ctl	99.9%	99.9%	99.7%	99.7%
CC(C)(Sc1cc(C(C)(C)C)c(O)c(C(C)(C)C)c1)Sc1cc(C(C)(C)C)c(O)c(C(C)(C)C)c1 [Probucol]					reduced Aβ1-40		109.3 % of ctl	109.3 % of ctl	94.8 % of ctl	94.8 % of ctl	136%	136%	76.8%	76.8%
CCN(CC)CCNC(=O)c1ccc(N)cc1 [Procainamide Hydrochloride]							111.1 % of ctl	111.1 % of ctl	96.8 % of ctl	96.8 % of ctl	109%	109%	118%	118%
CC(C)NCC(O)c1ccc2ccccc2c1 (stereo not drawn) [Pronetalol Hydrochloride]							108.9 % of ctl	108.9 % of ctl	88.8 % of ctl	88.8 % of ctl	94.6%	94.6%	88%	88%
CCCNCC(O)COc1ccccc1C(=O)CCc1ccccc1 (stereo not drawn) [Propafenone Hydrochloride]		useful in reducing Aβ1-42			reduced Aβ1-40		113.7 % of ctl	113.7 % of ctl	95.2 % of ctl	95.2 % of ctl	56.4%	56.4%	36.3%	36.3%
